Results published in ChEMBL document CHEMBL1201862, “PubChem BioAssay data set” (2004).
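Results reflect a 48-hour exposure of cells in 96-well plates to compound at five concentrations. The concentration for 50% growth inhibition is given as GI50.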 The source made the active and inactive calls. Cut-off read from the data, not from the text of the source: active = GI50 up to about 1.1 µM and inactive = higher.

Legend:
Experiment in all cases: inhibition of tumour cell growth, NCI panel, 48 h
786-0 = tested on: 786-0
A498 = tested on: A498
A549 = tested on: A549
CAKI-1 = tested on: CAKI-1
CCRF-CEM = tested on: CCRF-CEM
COLO 205 = tested on: COLO 205
DLD-1 = tested on: DLD-1
DMS-114 = tested on: DMS-114
EKVX = tested on: EKVX
HCC 2998 = tested on: HCC 2998
HCT-15 = tested on: HCT-15
HOP-18 = tested on: HOP-18
HOP-62 = tested on: HOP-62
HOP-92 = tested on: HOP-92
HT-29 = tested on: HT-29
IGROV-1 = tested on: IGROV-1
K562 = tested on: K562
KM-20L2 = tested on: KM-20L2
KM12 = tested on: KM12
LOX IMVI = tested on: LOX IMVI
LXFL 529 = tested on: LXFL 529
M14 = tested on: M14
M19-MEL = tested on: M19-MEL
MOLT-4 = tested on: MOLT-4
Malme-3M = tested on: Malme-3M
NCI-H226 = tested on: NCI-H226
NCI-H23 = tested on: NCI-H23
NCI-H522 = tested on: NCI-H522
OVCAR-3 = tested on: OVCAR-3
OVCAR-4 = tested on: OVCAR-4
OVCAR-5 = tested on: OVCAR-5
OVCAR-8 = tested on: OVCAR-8
RPMI-8226 = tested on: RPMI-8226
RXF 393 = tested on: RXF 393
SF-268 = tested on: SF-268
SF-295 = tested on: SF-295
SF-539 = tested on: SF-539
SK-MEL-28 = tested on: SK-MEL-28
SK-MEL-2 = tested on: SK-MEL-2
SK-MEL-5 = tested on: SK-MEL-5
SK-OV-3 = tested on: SK-OV-3
SN12C = tested on: SN12C
SNB-19 = tested on: SNB-19
SNB-75 = tested on: SNB-75
SNB-78 = tested on: SNB-78
SW-620 = tested on: SW-620
TK-10 = tested on: TK-10
U-251 = tested on: U-251
UACC-257 = tested on: UACC-257
UACC-62 = tested on: UACC-62
UO-31 = tested on: UO-31
XF498 = tested on: XF498
ACHN = tested on: ACHN
DMS-273 = tested on: DMS-273
HCT-116 = tested on: HCT-116
HL-60 = tested on: HL-60
NCI-H460 = tested on: NCI-H460
SR = tested on: SR

Measured: GI50

Cc1cc(O)c(C(=O)O)c2c1C(=O)c1c(O)c(OCC(O)C(O)C(O)C(O)CO)c(O)c(O)c1C2=O.NCCNCCO (stereo unspecified)
> 100 µM: HCT-15
inactive: 786-0 > 100 µM | A498 > 100 µM | A549 > 100 µM | CAKI-1 > 100 µM | CCRF-CEM > 100 µM | COLO 205 > 100 µM | DLD-1 > 100 µM | DMS-114 > 100 µM | EKVX > 100 µM | HCC 2998 > 100 µM | HOP-18 > 100 µM | HOP-62 > 100 µM | HOP-92 > 100 µM | HT-29 > 100 µM | IGROV-1 > 100 µM | K562 > 100 µM | KM-20L2 > 100 µM | KM12 39.9 µM | LOX IMVI > 100 µM | LXFL 529 > 100 µM | M14 > 100 µM | M19-MEL > 100 µM | MOLT-4 > 100 µM | Malme-3M > 100 µM | NCI-H226 > 100 µM | NCI-H23 > 100 µM | NCI-H522 > 100 µM | OVCAR-3 > 100 µM | OVCAR-4 > 100 µM | OVCAR-5 > 100 µM | OVCAR-8 > 100 µM | RPMI-8226 > 100 µM | RXF 393 > 100 µM | SF-268 > 100 µM | SF-295 > 100 µM | SF-539 > 100 µM | SK-MEL-28 > 100 µM | SK-MEL-2 > 100 µM | SK-MEL-5 > 100 µM | SK-OV-3 > 100 µM | SN12C > 100 µM | SNB-19 > 100 µM | SNB-75 > 100 µM | SNB-78 > 100 µM | SW-620 > 100 µM | TK-10 > 100 µM | U-251 > 100 µM | UACC-257 > 100 µM | UACC-62 > 100 µM | UO-31 > 100 µM | XF498 > 100 µM

CC(C)(C)c1cc2c3c(c1)C(C(F)(F)F)(C(F)(F)F)O[Te]3(C)OC2(C(F)(F)F)C(F)(F)F
inactive: 786-0 > 100 µM | A549 > 100 µM | ACHN > 100 µM | CAKI-1 > 100 µM | CCRF-CEM > 100 µM | COLO 205 > 100 µM | DLD-1 > 100 µM | DMS-114 > 100 µM | DMS-273 > 100 µM | EKVX > 100 µM | HCC 2998 > 100 µM | HCT-116 > 100 µM | HL-60 > 100 µM | HOP-18 > 100 µM | HOP-62 > 100 µM | HT-29 > 100 µM | IGROV-1 > 100 µM | K562 > 100 µM | KM-20L2 > 100 µM | KM12 > 100 µM | LOX IMVI > 100 µM | LXFL 529 > 100 µM | M14 > 100 µM | M19-MEL > 100 µM | MOLT-4 > 100 µM | Malme-3M > 100 µM | NCI-H226 > 100 µM | NCI-H23 > 100 µM | NCI-H460 > 100 µM | NCI-H522 > 100 µM | OVCAR-3 > 100 µM | OVCAR-4 > 100 µM | OVCAR-5 > 100 µM | OVCAR-8 > 10 µM | RPMI-8226 > 100 µM | RXF 393 > 100 µM | SF-268 > 100 µM | SF-295 > 100 µM | SF-539 > 100 µM | SK-MEL-28 > 100 µM | SK-MEL-2 > 100 µM | SK-OV-3 > 100 µM | SN12C > 100 µM | SNB-19 > 100 µM | SNB-78 > 100 µM | SR > 100 µM | SW-620 > 100 µM | TK-10 > 100 µM | U-251 > 100 µM | UACC-257 > 100 µM | UACC-62 > 100 µM | UO-31 > 100 µM | XF498 > 100 µM
> 100 µM: HCT-15
